Results: patent US6579718B1, “Carbazolylvinyl dye protein stains” (Molecular Probes, Inc., priority 2000, dated 2003)

How the values were obtained:
proteins [1] = test: Staining protein gels with dye in the running buffer (Example 30); details: running buffer with 0.05% SDS and 1-3 μM dye
Method: The proteins of interest are prepared for loading on standard SDS gels, using standard methods. Dilution series of known molecular weight markers, or proteins of unknown concentration, or protein mixtures of unknown composition are used. The gels are loaded and run under standard conditions, excepting that the running buffer contains 0.05% SDS and 1-3 μM Compound 9. The stained gels are either photographed directly after electrophoresis or are destained in 7.5% acetic acid or phosphate-buffered saline for 20-50 minutes to remove background staining prior to photography. […] In addition, the migration of protein bands can be monitored through the glass plates that support the gel, during electrophoresis. Such monitoring can either be calorimetric, since the stained protein bands are visually colored, or can be via fluorescence, if the excitation source is at visible wavelengths (such as a laser or mercury-arc lamp, for example).

proteins [2] = test: Prestaining of proteins prior to electrophoresis (Example 31); details: prestaining before electrophoresis
Method: The proteins of interest are diluted to appropriate concentrations in electrophoresis sample buffer. The samples are then heated to 90-95° C. for 4-5 minutes and allowed to cool to room temperature. Compound 9 is added to the protein solutions to a final concentration of 10 mM, and the samples are loaded onto a 12% polyacrylamide gel, or other appropriate percentage gel. The gel is electrophoresed under standard conditions and visualized directly using ultraviolet illumination. The sensitivity of this method is somewhat less than the sensitivity possible using the methods in Example 22 (post staining the gel after electrophoresis) or in Example 30 (dye in running buffer).

bovine serum albumin = bovine serum albumin (Bos taurus, UniProt P02769); test: Fluorescence enhancement in presence of bovine serum albumin and SDS in solution (FIG. 5); format: physicochemical; details: 10 mM Tris, pH 8.0, 200 μg/mL bovine serum albumin
Sequence of bovine serum albumin (P02769 25-607): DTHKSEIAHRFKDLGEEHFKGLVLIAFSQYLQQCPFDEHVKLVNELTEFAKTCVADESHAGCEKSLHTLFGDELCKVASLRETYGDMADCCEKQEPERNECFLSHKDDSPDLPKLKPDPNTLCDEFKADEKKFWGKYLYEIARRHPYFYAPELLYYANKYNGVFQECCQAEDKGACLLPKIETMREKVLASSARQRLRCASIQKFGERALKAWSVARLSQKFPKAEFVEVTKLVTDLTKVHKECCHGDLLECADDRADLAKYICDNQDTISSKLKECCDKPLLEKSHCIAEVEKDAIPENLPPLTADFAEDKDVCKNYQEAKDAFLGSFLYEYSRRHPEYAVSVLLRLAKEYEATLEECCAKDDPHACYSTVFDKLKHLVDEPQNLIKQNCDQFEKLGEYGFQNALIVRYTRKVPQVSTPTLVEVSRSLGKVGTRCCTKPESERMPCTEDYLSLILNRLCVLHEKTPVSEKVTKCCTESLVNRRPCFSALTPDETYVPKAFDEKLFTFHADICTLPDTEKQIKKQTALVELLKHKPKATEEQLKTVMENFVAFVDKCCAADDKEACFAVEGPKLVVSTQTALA
Method: FIG. 5: Fluorescence enhancement of Compound 9 in the presence of bovine serum albumin and sodium dodecyl sulfate in solution. Dye in 10 mM Tris, pH 8.0, 200 μg/mL bovine serum albumin, 0.05% SDS was compared with dye in 10 mM Tris, pH 8.0, 200 μg/mL bovine serum albumin, dye in 10 mM Tris, pH 8.0, 0.05% SDS or simply dye in 10 mM Tris, pH 8.0. A 7-fold enhancement in fluorescence emission of the dye in the presence of protein alone was observed relative to the dye in buffer alone. A 40-fold enhancement of fluorescence emission of the dye in the presence of anionic detergent and protein was observed relative to dye in buffer alone.

BSA = BSA (Bos taurus, UniProt P02769); test: Absorbance/emission spectra, fluorescence enhancement and quantum yield of dyes in solution +/- BSA (Example 21); format: physicochemical, bovine
Sequence of BSA (P02769 25-607): as above
Method: A particular dye of this invention is generally selected for a particular assay using one or more of the following criteria: sensitivity to poly(amino acids), insensitivity to the presence of nucleic acids, dynamic range, photostability, staining time, and spectral properties. […] Although the fluorescence enhancements and quantum yields are low to moderate in solution, some are significant relative to the long wavelength emission maxima (see Table 1 and Example 21).
Measurements are performed using −1 μM dye+/−150 μg/mL BSA in 10 mM Tris-HCl, pH 7.5,+0.05% SDS with a 2.0 mL sample volume. Fluorescence enhancements are calculated at emission maxima in a standard fluorometer using 470 nm excitation. Fluorescence quantum yields are determined relative to fluorescein (in 0.1 M NaOH), using 470 nm excitation.

tubulin = test: Electroblotting of tubulin from stained gels (Example 24); details: phosphate-buffered saline staining formulation
Method: Tubulin was selected as a model protein since it is relatively difficult to elute from gels by simple passive diffusion (Example 23). Two-fold serial dilutions of […] ranging from 1000 to 1 ng are applied and separated by sodium dodecyl sulfate (SDS)-polyacrylamide gel electrophoresis according to standard procedures. After electrophoresis, gels are stained with either Compound 9 or SYPRO Orange dye as described in Example 23, photographed and then incubated in a transfer buffer consisting of 10 mM Tris, 96 mM glycine, 10% methanol, 0.1% sodium dodecyl sulfate, pH 8.3. Proteins are electroblotted to poly(vinylidene difluoride) (PVDF) membranes using the same transfer buffer for 120 minutes using a semi-dry blotter by standard methods. Immunoblotting is performed by standard methods and colorimetric procedures are employed to detect the tubulin using 5-bromo-4-chloroindolyl phosphate/nitroblue tetrazolium (BCIP/NBT). […] Tubulin can subsequently be visualized by using alkaline phosphatase-conjugated secondary antibody with similar detection sensitivity as electroblots of unstained, control gels. The transfer of tubulin from gels stained with SYPRO Orange dye in 7% acetic acid is not possible despite a 20-minute incubation in transfer buffer containing 0.1% sodium dodecyl sulfate prior to blotting.

[3] = test system: amino acid homo- and hetero-polymers; test: Dye staining of amino acid homo- and hetero-polymers copolymerized into polyacrylamide gel discs
Source text: The specificity of protein detection of the present method can be compared to that of silver, CBB, SYPRO Orange dye and SYPRO Red dye staining for a variety of synthetic poly(amino acids) copolymerized into a polyacrylamide gel matrix. To do this, homopolymers of L-arginine, asparagine, histidine, lysine, aspartate, glutamate, alanine, glycine, isoleucine, leucine, methionine, serine, threonine, tryptophan, tyrosine and proline are copolymerized into 15% T, 2.6% C polyacrylamide gels at a concentration of […]. Except when indicated, 0.1% sodium dodecyl sulfate is included in the polyacrylamide solution as well. The amino acid heteropolymers, poly(glutamate, alanine, tyrosine), poly(glutamate, tyrosine), poly(lysine, tyrosine), poly(glutamate, lysine, tyrosine), and poly(arginine, tyrosine) are copolymerized into polyacrylamide gels in an identical manner as the homopolymers. Blank gels containing no polymer are prepared for reference. The co-polymerized gels are cut into discs using the large end of a 1000 microliter pipet tip (Sorenson Bioscience, Inc., West Salt. Lake City, Utah) and stained in Falcon 48 well flat bottom tissue culture plates (Becton-Dickinson, Franklin Lakes, N.J.) on an orbital shaker operating at 50 RPM. Gel discs are quantified on a Roche Lumi-Imager system (Indianapolis, Ind.) and classified into three groups based upon staining intensity (strong, moderate, or weak staining).

[4] = 150 μg/mL BSA, 10 mM Tris-HCl, pH 7.5, 0.05% SDS
[5] = dye without BSA, 10 mM Tris-HCl, pH 7.5, 0.05% SDS
[6] = gel discs with 0.1% SDS, no asterisk = moderate

- Enhancement in fluorescence emission, protein alone relative to dye in buffer alone (bovine serum albumin): 7 fold
- Enhancement of fluorescence emission, anionic detergent and protein relative to dye in buffer alone (bovine serum albumin; 0.05% SDS): 40 fold
- ABS λ max, BSA (BSA; [4]): 480 nm
- EM λ max, BSA (BSA; [4]): 604 nm
- FE (fluorescence enhancement, BSA) (BSA; 150 μg/mL BSA, 0.05% SDS, at emission maxima, 470 nm excitation): 92 fold
- Quantum Yield (BSA) (BSA; 150 μg/mL BSA, relative to fluorescein in 0.1 M NaOH, 470 nm excitation): 0.21
- ABS λ max, unbound (BSA; [5]): 479 nm
- EM λ max, unbound (BSA; [5]): ~700 nm
SMILES: CCn1c2ccccc2c2cc(/C=C/c3cc[n+](CCCCS(=O)(=O)[O-])c4ccccc34)ccc21 [Compound 9]
- Sensitivity compared with staining gels after electrophoresis (proteins [1]): about the same
- Sensitivity compared with methods of Example 22 or Example 30 (proteins [2]): somewhat less
- Transfer of tubulin from stained gel by electroblotting (tubulin): readily transferred
- Staining intensity, Arg homopolymer [3, 6]: Arg*
- Staining intensity, Arg:Tyr heteropolymer [3, 6]: Arg:Tyr*
- Staining intensity, Glu:Ala:Tyr heteropolymer [3, 6]: Glu:Ala:Tyr*
- Staining intensity, Glu:Lys:Tyr heteropolymer [3, 6]: Glu:Lys:Tyr*
- Staining intensity, Glu:Tyr heteropolymer [3, 6]: Glu:Tyr*
- Staining intensity, Gly homopolymer [3, 6]: Gly
- Staining intensity, His homopolymer [3, 6]: His*
- Staining intensity, Ile homopolymer [3, 6]: Ile
- Staining intensity, Lys homopolymer [3, 6]: Lys*
- Staining intensity, Lys:Tyr heteropolymer [3, 6]: Lys:Tyr*
- Staining intensity, Tyr homopolymer [3, 6]: Tyr*
- Change of amino acid polymer staining in phosphate-buffered saline ([3]; phosphate-buffered saline versus 7% acetic acid): not substantially reduced
